Usually IC50 stands for the concentration that inhibits the measured activity by half.

SMILES strings stand for the structures. In brackets after ≈: the same amount, converted by molar mass.

For this assay, the system named is Bipolaris oryzae. The assay can be described thus: Antifungal activity against Cochliobolus miyabeanus assessed as hyphal growth inhibition after 36 hrs. The class given is functional, organism-based.
Consider `C=C1OC(=O)c2c(O)cc(O)c(C)c2[C@@]1(C)O`, for which the half-maximal inhibitory concentration (IC50) stood at 10 µg/mL (≈ 42.3 µM).

On to `COc1cc(O)c2c(c1C)[C@](C)([C@H](C)O)OC2=O`, for which the 50% inhibitory concentration (IC50) came to 500 µg/mL (≈ 1980 µM). The result for `C=C1OC(=O)c2c(O)cc(OC)c(C)c2[C@@]1(C)O` reads 0.5 µg/mL (≈ 2 µM); that for `COc1cc(O)c2c(c1C)[C@](C)(C(C)=O)OC2=O`, 10 µg/mL (≈ 40 µM).
